# According to PubChem BioAssay AID551 (University of Pittsburgh Molecular Library Screening Center, 2006):
# Activity calls are given as the source filed them. No rule for the calls is given here.
# Target: Dual specificity protein phosphatase 1 (Homo sapiens) (UniProt P28562)
# Test: concentration-response of DUSP1 blockers – biochemical, in vitro, confirmation, dose response (AID 551)
# Settings: recombinant MKP-1 phosphatase, fluorescence substrate
# Sequence of Dual specificity protein phosphatase 1 (Homo sapiens) (P28562 whole entry, looked up): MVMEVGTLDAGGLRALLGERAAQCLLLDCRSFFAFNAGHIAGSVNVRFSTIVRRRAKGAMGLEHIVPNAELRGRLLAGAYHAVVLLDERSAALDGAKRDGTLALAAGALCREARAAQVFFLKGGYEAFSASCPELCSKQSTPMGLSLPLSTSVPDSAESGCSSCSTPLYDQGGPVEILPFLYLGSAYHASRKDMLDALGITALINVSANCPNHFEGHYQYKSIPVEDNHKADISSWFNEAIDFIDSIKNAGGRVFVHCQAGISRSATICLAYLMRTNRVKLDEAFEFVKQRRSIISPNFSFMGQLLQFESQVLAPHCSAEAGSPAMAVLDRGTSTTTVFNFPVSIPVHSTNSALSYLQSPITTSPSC
row,Structure (SMILES),IC50
1,CCOC(=O)c1ccc(NC2c3ncccc3C(=O)N2Cc2ccc(F)cc2)cc1 (centres undefined),> 50 µM (inactive)
2,Oc1ccc2ccccc2c1C=NC12CN3CCN(CN(C3)C1)C2,> 50 µM (inactive)
3,Cc1cc(C)n2c(SCC(=O)N3CCN(S(=O)(=O)c4ccc(Cl)cc4)CC3)nnc2n1,50 µM
4,COC(=O)C1=C(C)NC2=C(C(=O)c3ccccc32)C1c1ccc(-c2ccc(C(=O)O)cc2)o1 (centres undefined),> 50 µM (inactive)
5,O=C1C(C2=C(O)c3ccccc3C2=O)=Nc2ccccc21,> 50 µM (inactive)

# Continued, values first:
row,IC50,Structure (SMILES)
1,> 50 µM (inactive),CCSCCOC(=O)C1=C(C)NC2=C(C(=O)CCC2)C1c1coc2ccccc2c1=O (centres undefined)
2,> 50 µM (inactive),N#C/C(=C(/O)CSc1nnc(Cc2cccs2)n1C1CCCCC1)c1nc2ccccc2[nH]1
3,> 50 µM (inactive),O=C1c2cccnc2C(Nc2ccc(S(=O)(=O)N3CCCCCC3)cc2)N1Cc1ccccc1 (centres undefined)
4,27.8 µM,O=C1c2ccccc2-c2onc3ccc(NCCCn4ccnc4)c1c23
